In patent US20180111913A1, “SUBSTITUTED BENZOFURAN DERIVATIVES AS NOVEL ANTIMYCOBACTERIAL AGENTS” (priority 2015, published 2018):
Converted amounts (≈) assume the structure as drawn. Like-named read-outs stand apart in the source and are kept apart here.

Assays:
[1] = target: Mtb Pks13-TE domain (wild-type) (Mycobacterium tuberculosis, UniProt I6X8D2); assay: biochemical; format: biochemical
[2] = system: Mtb strain mc^27000; assay: microbe, parasite or virus in culture; format: cell-based, Mycobacterium tuberculosis; details: for inhibition at 20 µM / inhibition at 40 µM: read-out: percentage inhibition observed (incomplete inhibition)
[3] = Pks13-TE, 20 μM 4-MUH, read-out: IC50
[4] = Mycobacterium tuberculosis, Mtb mc^27000, liquid medium, 96-well plates, read-out: MIC
[5] = Mtb mc^27000, liquid medium, 96-well plates, read-out: MIC

Mtb Pks13-TE domain (wild-type), sequence (I6X8D2 1451-1733): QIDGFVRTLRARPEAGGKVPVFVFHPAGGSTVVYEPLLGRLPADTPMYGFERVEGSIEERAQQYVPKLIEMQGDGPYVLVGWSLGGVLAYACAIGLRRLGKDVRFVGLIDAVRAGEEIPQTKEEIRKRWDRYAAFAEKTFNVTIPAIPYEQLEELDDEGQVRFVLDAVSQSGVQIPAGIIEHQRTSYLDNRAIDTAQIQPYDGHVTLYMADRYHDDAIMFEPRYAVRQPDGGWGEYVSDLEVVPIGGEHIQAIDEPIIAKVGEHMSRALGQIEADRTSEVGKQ

| Compound | IC50 [1, 3] [µM] | MIC [2, 4] [µM] | other results |
| --- | --- | --- | --- |
| CCOC(=O)c1c(-c2ccccc2)oc2cc([N+](=O)[O-])c(O)c(CN3CCCCC3)c12 [compound 26] | 1.3 | 5.4 (≈ 2.29 µg/mL) | – |
| CCOC(=O)c1c(-c2ccccc2)oc2cc(NC(C)=O)c(O)c(CN3CCCCC3)c12 [compound 28] | 3.1 | – | MIC [2, 5]: 20 µM (≈ 8.73 µg/mL) |
| CNC(=O)c1c(-c2ccccc2)oc2cccc(CN3CCCCC3)c12 [compound 33] | 45 | > 50 | – |
| CCOC(=O)c1c(-c2ccccc2)oc2cc(OC)cc(CN3CCCCC3)c12 [compound 37] | 29 | – | MIC [2, 5]: 7.3 µM (≈ 2.87 µg/mL) |
| O=C(c1c(-c2ccccc2)oc2ccc(O)c(CN3CCCCC3)c12)N1CCCCC1 [compound 43] | 0.32 | – | MIC [2, 5]: >10 µM |
| O=C(c1c(-c2ccccc2)oc2ccc(O)c(CN3CCCCC3)c12)N1CCOCC1 [compound 46] | 0.34 | > 20 | – |
| CCOC(=O)c1c(-c2cccc(OC)c2)oc2ccc(O)c(CN3CCCCC3)c12 [compound 48] | 0.36 | 1.3 (≈ 0.532 µg/mL) | – |
| CCOC(=O)c1c(-c2ccc(F)cc2)oc2cc(O)cc(CN3CCCCC3)c12 [compound 49] | 0.4 | – | MIC [2, 5]: >10 µM |
| CCOC(=O)c1c(-c2cccc(O)c2)oc2ccc(O)c(CN3CCCCC3)c12 [compound 50] | 0.23 | – | MIC [2, 5]: 0.23 µM (≈ 0.091 µg/mL) |
| CCOC(=O)c1c(-c2ccc(F)cc2)oc2cc(O)cc(CN3CCCCC3)c12 [compound 51] | 0.8 | – | MIC [2, 5]: >30 µM |
| CC(C)(C)OC(=O)NC1CCN(C(=O)c2c(-c3ccccc3)oc3ccc(O)c(CN4CCCCC4)c23)CC1 [compound 53] | 0.63 | – | MIC [2, 5]: 6.6 µM (≈ 3.52 µg/mL) |
| NC1CCN(C(=O)c2c(-c3ccccc3)oc3ccc(O)c(CN4CCCCC4)c23)CC1 [compound 54] | 5.3 | 20 (≈ 8.67 µg/mL) | – |
| CCOC(=O)c1c(-c2ccccc2)oc2cc(O)cc(CCN)c12 [compound 55] | 4 | – | MIC [2, 5]: >20 µM |
| CNC(=O)c1c(-c2cccc(OC)c2)oc2ccc(O)c(CN3CCCCC3)c12 [compound 56] | 0.4 | – | MIC [2, 5]: 9.0 µM (≈ 3.55 µg/mL) |
| CNC(=O)c1c(-c2cccc(O)c2)oc2ccc(O)c(CN3CCCCC3)c12 [compound 57] | 0.27 | 0.44 (≈ 0.167 µg/mL) | – |
| CCOC(=O)c1c(-c2ccc(O)c(F)c2)oc2ccc(O)c(CN3CCCCC3)c12 [compound 59] | 0.29 | 0.3 (≈ 0.124 µg/mL) | – |
| CCOC(=O)c1c(-c2ccc(C(N)=O)cc2)oc2ccc(O)c(CN3CCCCC3)c12 [compound 60] | 0.3 | 3.5 (≈ 1.48 µg/mL) | – |
| CC(C)N1Cc2cc(O)cc3oc(-c4ccccc4)c(c23)C1=O [compound 71] | 9 | > 20 | – |
| CCOC(=O)c1c(-c2ccc(F)cc2)oc2cc(O)cc(CCNC(C)CO)c12 (stereo not shown) [compound 77] | 6 | 3.3 (≈ 1.32 µg/mL) | – |
| CNC(=O)c1c(-c2ccnc(OC)c2)oc2cc(OC)cc(CN3CCCCC3)c12 [compound 86] | > 20 | > 20 | – |
| CNC(=O)c1c(-c2cccc(O)c2)oc2cc(O)cc(CN3CCCCC3)c12 [compound 89] | 9 | 1.2 (≈ 0.457 µg/mL) | – |

| Compound | IC50 [1, 3] [µM] | MIC [2, 4] [µM] | other results |
| --- | --- | --- | --- |
| CNC(=O)c1c(-c2ccccc2)oc2cc(OCC(N)=O)cc(CN3CCCCC3)c12 [compound 90] | – | – | inhibition at 40 µM ([1]; at 40 μM, read-out: percentage inhibition observed (IC50 column, incomplete inhibition)): 31%; inhibition at 20 µM ([2]; Mycobacterium tuberculosis): 13% |
| CNC(=O)c1c(-c2ccccc2)oc2cc(OCCN)cc(CN3CCCCC3)c12 [compound 91] | 10 | – | inhibition at 40 µM ([2]; Mycobacterium tuberculosis): 34% |
| CNC(=O)c1c(-c2ccccc2)oc2cc(OCC(=O)OC)cc(CN3CCCCC3)c12 [compound 93] | 10 | – | inhibition at 40 µM ([2]; Mycobacterium tuberculosis): 16% |
| CCOC(=O)c1c(-c2ccccc2)oc2ccc(O)c(CN3CCC(N4CCCCC4)CC3)c12 [compound 98] | > 20 | – | inhibition at 20 µM ([2]; Mycobacterium tuberculosis): 40% |
| OCc1c(-c2ccccc2)oc2ccc(O)c(CN3CCC(N4CCCCC4)CC3)c12 [compound 99] | – | – | IC50 ([1]; Pks13-TE, read-out: IC50 (μM), given as NB / NI): > 20 µM; inhibition at 20 µM ([2]; Mycobacterium tuberculosis): 28% |
| O=S(=O)(Nc1ccc2oc(-c3ccccc3)cc2c1CN1CCC(N2CCCCC2)CC1)C(F)(F)F [compound 100] | > 40 | – | inhibition at 20 µM ([2]; Mycobacterium tuberculosis): 6% |
| COC(=O)c1c(-c2ccccc2)oc2ccc(O)c(CCCN3CCCC3)c12 [compound 104] | 2 | 1.8 (≈ 0.683 µg/mL) | – |
| CNC(=O)c1c(-c2ccccc2)oc2ccc(O)c(CCCN3CCCC3)c12 [compound 105] | 5 | 5 (≈ 1.89 µg/mL) | – |
| COC(=O)n1c(-c2ccccc2)c(Br)c2cccc(CN3CCCCC3)c21 [compound 108] | 2 | – | inhibition at 20 µM ([2]; Mycobacterium tuberculosis): 26% |
| CCOC(=O)c1c(-c2ccccc2)oc2ccc(O)c(CN(C)C)c12 [compound 109] | 1.57 ± 0.15 | – | IC50 ([1]; Mtb Pks13-TE domain, mean ± s.d. of triplicates, read-out: IC50): 1.57 ± 0.15 µM; loss of inhibitory activity / higher IC50 against Pks13-TE compared to the test compound ([1]; relative to test compound): > 6 fold; higher MIC compared to the test compound [2]: 3 fold; MIC ([2]; Mtb mc^27000, liquid medium, 96-well plates): 7.3 ± 0.3 µM (≈ 2.48 µg/mL); MIC ([2]; […], mean ± s.d. of triplicates, NI: no inhibition): 7.3 ± 0.3 µM (≈ 2.48 µg/mL) |
| Oc1ccc2nc(-c3ccccc3)[nH]c2c1CN1CCCC1 [compound 110] | 6.8 | 22 (≈ 6.45 µg/mL) | – |
| CNC(=O)c1c(-c2cccnc2)oc2ccc(OC)c(CN3CCCCC3)c12 [compound 112] | 35.8 | > 40 | – |
| CCOC(=O)c1c(-c2ccccc2)oc2ccc(O)c(CN3CCC(O)CC3)c12 [compound 117] | 0.18 | 5.6 (≈ 2.21 µg/mL) | – |
| CNC(=O)c1c(-c2ccc(O)cc2)oc2ccc(O)c(CN3CCC(O)CC3)c12 [compound 120] | 0.5 | 4.2 (≈ 1.67 µg/mL) | – |
| CNC(=O)c1c(-c2ccc(O)cc2)oc2ccc(O)c(CN3CCC(CO)CC3)c12 [compound 121] | 0.6 | 40 (≈ 16.4 µg/mL) | – |
| CNC(=O)c1c(-c2ccc(O)cc2)oc2ccc(O)c(CN3CCC(CO)C3)c12 (stereo not shown) [compound 122] | 0.51 | 1 (≈ 0.396 µg/mL) | – |
| CNC(=O)c1c(-c2ccc(O)cc2)oc2ccc(O)c(CN3CCC(C(N)=O)CC3)c12 [compound 123] | 1.6 | > 40 | – |
| CNC(=O)c1c(-c2ccc(O)cc2)oc2ccc(O)c(CN3CCC(C#N)CC3)c12 [compound 124] | 0.25 | 20 (≈ 8.11 µg/mL) | – |
| NC(=O)c1c(-c2ccc(O)cc2)oc2ccc(O)c(CN3CCCCC3)c12 [compound 125] | 0.17 | 1.3 (≈ 0.476 µg/mL) | – |
| CNC(=O)c1c(-c2ccc(O)cc2)oc2ccc(O)c(CN3CCCC(CO)C3)c12 (stereo not shown) [compound 127] | 1.1 | 5 (≈ 2.05 µg/mL) | – |
| CNC(=O)c1c(-c2ccc(O)cc2)oc2ccc(O)c(CNC3CCCC3)c12 [compound 128] | 1 | 1 (≈ 0.38 µg/mL) | – |

| Compound | IC50 [1, 3] [µM] | MIC [2, 4] [µM] | other results |
| --- | --- | --- | --- |
| CCOC(=O)c1c(-c2ccccc2)oc2ccc(O)c(CN3CCCC(CO)C3)c12 (stereo not shown) [compound 132] | 0.42 | – | MIC [2, 5]: 10 µM (≈ 4.09 µg/mL) |
| CCOC(=O)c1c(-c2ccc(O)cc2)oc2ccc(O)c(CN3CCCC(CO)C3)c12 (stereo not shown) [compound 134] | 0.4 | 2.5 (≈ 1.06 µg/mL) | – |
| CNC(=O)c1c(-c2ccccc2)oc2ccc(O)c(CN3CCCC(CO)C3)c12 (stereo not shown) [compound 135] | 2 | 0.5 (≈ 0.197 µg/mL) | – |
| CCOC(=O)c1c(-c2ccccc2)oc2cc(O)cc(CCN)c12 [compound 136] | > 20 | – | MIC [2, 5]: 4 µM (≈ 1.3 µg/mL) |
| CNC(=O)c1c(-c2ccccc2)oc2ccc(O)c(CCNC3CCCC3)c12 [compound 141] | 1.4 | – | MIC [2, 5]: 10.0 µM (≈ 3.78 µg/mL) |
| CCOC(=O)c1c(-c2ccccc2)oc2ccc(O)c(CCN3CCCC(O)C3)c12 (stereo not shown) [compound 151] | 10 | – | MIC [2, 5]: >20 µM |
| CCOC(=O)CCCC1CCN(CCCc2c(O)ccc3oc(-c4ccccc4)c(C(=O)OCC)c23)C1 (stereo not shown) [compound 161] | 0.8 | – | MIC [2, 5]: 1.0 µM (≈ 0.508 µg/mL) |
| CCOC(=O)c1c(-c2ccccc2)oc2ccc(O)c(CCCN3CCC(CCCO)C3)c12 (stereo not shown) [compound 162] | 2.7 | 2.5 (≈ 1.13 µg/mL) | – |
| CCOC(=O)c1c(-c2ccccc2)oc2ccc(O)c(CCCN3CCC3)c12 [compound 165] | 0.8 | 0.08 (≈ 0.0304 µg/mL) | – |
| CCOC(=O)c1c(-c2ccccc2)oc2ccc(O)c(CCCN3CCC(CO)CC3)c12 [compound 166] | 0.5 | 6.1 (≈ 2.67 µg/mL) | – |
| CCOC(=O)/C=C/CC1CCN(CCCc2c(O)ccc3oc(-c4ccccc4)c(C(=O)OCC)c23)C1 (stereo not shown) [compound 171] | 0.5 | 2.7 (≈ 1.37 µg/mL) | – |
| CCOC(=O)CCCC1CCN(CCCc2c(O)ccc3oc(-c4ccccc4)c(C(=O)OCC)c23)C1 (stereo not shown) [compound 172] | 0.7 | 2.9 (≈ 1.47 µg/mL) | – |
| CCOC(=O)c1c(-c2ccccc2)oc2ccc(O)c(CCCN3CCSC3C)c12 (stereo not shown) [compound 174] | 1.25 | 4.7 (≈ 2 µg/mL) | – |
| CCOC(=O)c1c(-c2ccccc2)oc2ccc(O)c(CCCN3CC[C@@H](O)C3)c12 [compound 175] | 0.95 | 6.1 (≈ 2.5 µg/mL) | – |
| CCOC(=O)c1c(-c2ccccc2)oc2ccc(O)c(CCCN3CC[C@H](O)C3)c12 [compound 186] | 0.62 | 10 (≈ 4.09 µg/mL) | – |
| CCOC(=O)c1c(-c2ccccc2)oc2ccc(O)c(CCCN3CC(F)C3)c12 [compound 199] | 2.5 | 1.2 (≈ 0.477 µg/mL) | – |
| CNC(=O)c1c(-c2ccccc2)oc2ccc(O)c(CCCN3CCC3)c12 [compound 200] | 4.4 | 0.6 (≈ 0.219 µg/mL) | – |
| CCOC(=O)c1c(-c2ccc(O)cc2)oc2ccc(O)c(CCCN3CCC3)c12 [compound 201] | 2.1 | < 0.08 | – |
| CNC(=O)c1c(-c2ccc(O)cc2)oc2ccc(O)c(CCCN3CCC3)c12 [compound 202] | 1.6 | 15 (≈ 5.71 µg/mL) | – |
| CC(C)NCCc1c(O)ccc2oc(-c3ccc(O)cc3)c(C(=O)N(C)C)c12 [compound 209] | 1.8 | – | MIC [2, 5]: 0.45 µM (≈ 0.172 µg/mL) |
| CCOC(=O)c1c(-c2ccccc2)oc2ccc(O)c(CCCN3CC[C@@H]3CO)c12 [compound 212] | 1.94 | 1.1 (≈ 0.45 µg/mL) | – |
